Data: article PMC9403976, “Elucidating the path to Plasmodium prolyl-tRNA synthetase inhibitors that overcome halofuginone resistance” (Nature Communications, 2022)
“And” between values parts separate entries of the source, which are not always exact repeats. Equal values may be shown once. Read-outs that look alike come from different tables or passages of the source. Marks after values point to notes of the source that are not given here.

What was measured:
[1] = biological target: T1, PfcProRS (Plasmodium falciparum, UniProt Q8I5R7); assay type: binding; conditions: for Normalized response, dose-response replicates (SI Fig 14): replicates 1-3, listed as MAT334 (29)
T1 construct: made in house; host or cells: E. coli SoluBL-21

[2] = tested on: halofuginone-induced P. falciparum (elevated proline homeostasis); assay: P. falciparum ABS growth assay, SYBR Green, 72 h, halofuginone-induced parasites; assay type: cell-based, Plasmodium falciparum
Procedure, shortened: (§1)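 Dd2-derived erythrocytic-stage parasites at 1% parasitemia and 1% hematocrit in RPMI + 0.5% Albumax were exposed to compounds in triplicate dose-response. Controls were 10 μM dihydroartemisinin (kill) and no-compound wells (growth). Growth was read by SYBR Green 1 fluorescence after 72 h and used to derive EC50.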

[3] = tested on: HFGR-I P. falciparum (elevated proline homeostasis and PfcProRS^L482H); assay: P. falciparum ABS growth assay, SYBR Green, 72 h, HFGR-I parasites; assay type: cell-based, Plasmodium falciparum
Procedure, shortened: as §1

[4] = tested on: P. falciparum Dd2-2D4; assay: P. falciparum asexual blood stage (ABS) growth assay, SYBR Green, 72 h, wild-type parasites; assay type: cell-based, Plasmodium falciparum
[5] = biological target: HsProRS (Homo sapiens, UniProt P07814); assay: TR-FRET ligand displacement assay with tracer MAT379 (CoraFluor-1-Halo and anti-His6 antibody formats); assay type: binding; design: made in house; host or cells: E. coli SoluBL-21; conditions: 250 nM MAT379
[6] = 10 μM, compound had <50% inhibition

T1 sequence (Q8I5R7 249-746): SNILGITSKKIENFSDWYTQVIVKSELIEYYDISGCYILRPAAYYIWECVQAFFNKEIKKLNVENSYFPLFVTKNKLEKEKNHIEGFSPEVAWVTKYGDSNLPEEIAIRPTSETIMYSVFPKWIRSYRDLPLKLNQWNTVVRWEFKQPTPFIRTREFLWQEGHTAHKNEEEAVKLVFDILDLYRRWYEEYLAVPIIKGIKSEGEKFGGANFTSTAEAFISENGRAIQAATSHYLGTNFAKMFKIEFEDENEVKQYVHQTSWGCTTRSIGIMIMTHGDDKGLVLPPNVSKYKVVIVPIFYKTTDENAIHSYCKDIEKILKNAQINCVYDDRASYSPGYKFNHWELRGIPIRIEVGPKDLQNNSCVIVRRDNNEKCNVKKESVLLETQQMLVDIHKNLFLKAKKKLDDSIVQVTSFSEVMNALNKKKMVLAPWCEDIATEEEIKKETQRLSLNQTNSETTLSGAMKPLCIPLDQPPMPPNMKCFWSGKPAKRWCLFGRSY
Chain of HsProRS (P07814 996-1512): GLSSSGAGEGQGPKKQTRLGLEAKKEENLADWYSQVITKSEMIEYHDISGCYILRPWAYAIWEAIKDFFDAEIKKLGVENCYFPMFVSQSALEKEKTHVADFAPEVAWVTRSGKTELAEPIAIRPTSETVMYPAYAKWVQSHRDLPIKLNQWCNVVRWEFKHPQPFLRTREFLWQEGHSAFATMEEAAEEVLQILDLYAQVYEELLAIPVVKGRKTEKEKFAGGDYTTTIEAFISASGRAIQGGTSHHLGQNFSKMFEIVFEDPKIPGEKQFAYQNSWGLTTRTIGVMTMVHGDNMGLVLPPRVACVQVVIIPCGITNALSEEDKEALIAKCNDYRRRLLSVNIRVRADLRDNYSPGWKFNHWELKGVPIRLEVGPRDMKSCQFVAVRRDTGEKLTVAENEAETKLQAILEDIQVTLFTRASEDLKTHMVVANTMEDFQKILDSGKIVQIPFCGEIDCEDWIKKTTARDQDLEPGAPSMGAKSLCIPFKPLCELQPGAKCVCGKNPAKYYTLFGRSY

O=C(NC1Cc2ccccc2C1)c1nccnc1NC(=O)N1CCC(NC(=O)[C@@H]2CCCN2)CC1 [MAT334]
Normalized response, dose-response replicates (SI Fig 14) ([1]; Log[inhibitor] (M) -5.000): 2.08E-01 and 3.63E-01 and 3.19E-01 | Normalized response, dose-response replicates (SI Fig 14) ([1]; Log[inhibitor] (M) -5.301): 5.18E-01 and 3.74E-01 and 4.21E-01 | Normalized response, dose-response replicates (SI Fig 14) ([1]; Log[inhibitor] (M) -5.601): 6.67E-01 and 7.40E-01 and 6.08E-01 | Normalized response, dose-response replicates (SI Fig 14) ([1]; Log[inhibitor] (M) -5.904): 7.68E-01 and 7.75E-01 and 6.45E-01 | Normalized response, dose-response replicates (SI Fig 14) ([1]; Log[inhibitor] (M) -6.208): 8.81E-01 and 8.94E-01 and 8.19E-01 | Normalized response, dose-response replicates (SI Fig 14) ([1]; Log[inhibitor] (M) -6.509): 8.78E-01 and 9.77E-01 and 9.06E-01 | Normalized response, dose-response replicates (SI Fig 14) ([1]; Log[inhibitor] (M) -6.796): 9.44E-01 and 9.68E-01 and 8.61E-01 | Normalized response, dose-response replicates (SI Fig 14) ([1]; Log[inhibitor] (M) -7.108): 1.02E+00 and 1.01E+00 and 1.00E+00 | Normalized response, dose-response replicates (SI Fig 14) ([1]; Log[inhibitor] (M) -7.409): 9.75E-01 and 1.05E+00 and 9.17E-01 | Normalized response, dose-response replicates (SI Fig 14) ([1]; Log[inhibitor] (M) -7.710): 9.99E-01 and 1.04E+00 and 9.29E-01 | Normalized response, dose-response replicates (SI Fig 14) ([1]; Log[inhibitor] (M) -8.000): 9.48E-01 and 9.82E-01 and 1.03E+00 | Normalized response, dose-response replicates (SI Fig 14) ([1]; Log[inhibitor] (M) -8.301): 1.01E+00 and 1.09E+00 and 9.01E-01 | Normalized response, dose-response replicates (SI Fig 14) ([1]; Log[inhibitor] (M) -8.602): 8.97E-01 (2×) and 1.09E+00 | Normalized response, dose-response replicates (SI Fig 14) ([1]; Log[inhibitor] (M) -9.000): 9.02E-01 and 9.67E-01 and 1.03E+00 | Normalized response, dose-response replicates (SI Fig 14) ([1]; Log[inhibitor] (M) -9.301): 8.06E-01 and 9.62E-01 and 9.06E-01 | PfcProRS -- best Kd ([1]; SI Fig 16a, values on -log scale): 6.180 | percent growth at 10 μM, Dd2 Halofuginone-induced [2, 6]: 59%^b | EC50 ([2]; Plasmodium falciparum, DD2, halofuginone-induced, bound given in μM, read-out: Dd2 EC50 halofuginone-induced, bound): > 10 µM | % signal at 10 μM, halofuginone-induced ([2]; halofuginone-induced, 10 μM): 58.7% | fold decreased activity in halofuginone-induced and HFGR-I parasites ([2]; vs wild-type Dd2-2D4): 20-to-40 fold | percent growth at 10 μM, Dd2 HFGR-I [3, 6]: 66%^b | % signal at 10 μM, HFGR1 ([3]; HFGR1, 10 μM): 66.0% | EC50 ([3]; Plasmodium falciparum, DD2, HFGR1, bound given in μM, read-out: Dd2 EC50 HFGR1, bound): > 10 µM | percent growth at 10 μM, Dd2 wt [4, 6]: 76%^b | EC50 ([4]; Plasmodium falciparum, wildtype (Dd2-2D4), bound given in μM, read-out: Dd2 EC50 wildtype (Dd2-2D4), bound): > 10 µM | % signal at 10 μM, wildtype (Dd2-2D4) ([4]; wildtype (Dd2-2D4), 10 μM): 75.7% | Kd ([5]; HsProRS (KD [nM]) + proline, 100 μM proline): 2130 nM | Kd ([5]; HsProRS (KD [nM]) −, absence of substrates): 2110 nM
